According to patent US20100137313A1 (ASTRAZENECA AB, priority 2008, published 2010):

Target: S. pneumoniae Topoisomerase IV ATPase (ParE) (Streptococcus pneumoniae serotype 4, UniProt Q59961)
Assay: S. pneumoniae Topoisomerase IV ATPase inhibition
Format: biochemical
Settings: values marked * are an average of two or more data points, read-out: % Inh (13 μM) of S. pneumoniae Topoisomerase IV ATPase
Outline: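 Phosphate-release ATPase assay: 1.25 nM ParE, 160 μM ATP, DNA-stimulated. Quench with malachite green/molybdate in 1 M HCl, read 650 nm; IC50 from 10-point dose series.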

Chain of S. pneumoniae Topoisomerase IV ATPase (ParE) (Q59961 whole entry): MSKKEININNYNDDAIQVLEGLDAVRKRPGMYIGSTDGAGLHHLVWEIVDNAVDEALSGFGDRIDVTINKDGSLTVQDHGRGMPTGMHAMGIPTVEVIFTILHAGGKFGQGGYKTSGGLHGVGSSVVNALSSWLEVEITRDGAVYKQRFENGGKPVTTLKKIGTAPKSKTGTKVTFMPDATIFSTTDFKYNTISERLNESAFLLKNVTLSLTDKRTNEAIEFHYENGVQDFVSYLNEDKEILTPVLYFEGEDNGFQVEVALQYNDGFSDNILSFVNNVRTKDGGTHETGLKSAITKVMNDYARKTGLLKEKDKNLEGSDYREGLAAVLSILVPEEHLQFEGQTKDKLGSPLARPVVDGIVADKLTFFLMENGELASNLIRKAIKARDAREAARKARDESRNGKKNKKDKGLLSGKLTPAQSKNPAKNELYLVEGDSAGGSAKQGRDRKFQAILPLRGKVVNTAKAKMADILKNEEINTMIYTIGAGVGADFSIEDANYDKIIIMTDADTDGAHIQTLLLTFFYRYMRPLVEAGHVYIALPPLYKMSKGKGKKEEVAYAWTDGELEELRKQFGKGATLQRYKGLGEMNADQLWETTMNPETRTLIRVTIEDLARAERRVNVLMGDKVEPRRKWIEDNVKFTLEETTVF

| Structure (SMILES) | inhibition at 13 µM [%] |
| --- | --- |
| COc1ncc(-c2cnc(Nc3ccc(F)c(Cl)c3)nc2NC2CCOC2)cn1 (stereo not shown) [Example 940, N2-(3-chloro-4-fluorophenyl)-2′-methoxy-N4-(tetrahydrofuran-3-yl)-5,5′-bipyrimidine-2,4-diamine] | 76 |
| COc1cc(Nc2ncc(-c3cccc(/C=C/C(=O)O)c3)c(N3CCOCC3)n2)ccc1F [Example 452] | 76 |
| COc1cccc(-c2cnc(Nc3ccc(F)c(Cl)c3)nc2NCCCN(C)C)c1 [Example 26, N^2-(3-chloro-4-fluorophenyl)-N^4-[3-(dimethylamino)propyl]-5-(3-methoxyphenyl)-pyrimidine-2,4-diamine] | 91.7 |
| COc1cc(Nc2ncc(-c3cnc(SC)c(C(=O)O)c3)c(-n3nc(C(F)(F)F)cc3C)n2)cc(OC)c1 [Example 854, 5-{2-[(3,5-dimethoxyphenyl)amino]-4-[5-methyl-3-(trifluoromethyl)-1H-pyrazol-1-yl]pyrimidin-5-yl}-2-(methylsulfanyl)pyridine-3-carboxylic acid] | 100 |
| COc1cc(Nc2ncc(-c3cnc(OCCCS(C)(=O)=O)c(C(=O)O)c3)c(-n3nc(C(F)(F)F)cc3C)n2)cc(OC)c1 [Example 967, 5-(2-(3,5-dimethoxyphenylamino)-4-(5-methyl-3-(trifluoromethyl)-1H-pyrazol-1-yl)pyrimidin-5-yl)-2-(3-(methylsulfonyl)propoxy)nicotinic acid] | 100 |
| O=C(O)c1cncc(-c2cnc(Nc3ccc(F)c(Cl)c3)nc2NCc2ccncc2)c1 [Example 224, 5-{2-(3-Chloro-4-fluoro-phenylamino)-4-[(pyridin-4-ylmethyl)-amino]-pyrimidin-5-yl}-nicotinic acid] | 78.5 |
| COc1cc(Nc2ncc(-c3cnc(OCCCS(C)(=O)=O)c(C(=O)NS(C)(=O)=O)c3)c(-n3ccc(C(F)(F)F)n3)n2)cc(OC)c1 [Example 971, (2-(3,5-dimethoxyphenylamino)-4-(3-(trifluoromethyl)-1H-pyrazol-1-yl)pyrimidin-5-yl)-N-(methylsulfonyl)-2-(3-(methylsulfonyl)propoxy)nicotinamide] | 100 |
| CN(C)CCCNc1nc(Nc2ccc(F)c(Cl)c2)ncc1-c1ccc(CCC(=O)O)cc1 [Example 27, 3-[4-(2-[(3-chloro-4-fluorophenyl)amino]-4-{[3-(dimethylamino)propyl]-amino}pyrimidin-5-yl)phenyl]propanoic acid] | 89.2 |
| CCOC(=O)c1cncc(-c2cnc(Nc3ccc(F)c(Cl)c3)nc2NCCOc2ccccc2)c1 [Example 112] | 0.15 |
| O=C(O)CNc1nc(Nc2ccc(F)c(Cl)c2)ncc1-c1cncc(C(=O)O)c1 [Example 238, 5-[4-(carboxymethylamino)-2-[(3-chloro-4-fluorophenyl)amino]-pyrimidin-5-yl]pyridine-3-carboxylic acid] | 72.6 |
| CCC(C)Nc1nc(Nc2ccc(F)c(Cl)c2)ncc1-c1ccc(OC)c(C(F)(F)F)c1 (stereo not shown) [Example 1109, N′-butan-2-yl-N-(3-chloro-4-fluorophenyl)-5-[4-methoxy-3-(trifluoromethyl)phenyl]pyrimidine-2,4-diamine] | 28 |
| Cc1ccc(Nc2ncc(-c3ccc(C(=O)O)s3)c(NCCCN(C)C)n2)cc1C#N [Example 337, 5-(2-(3-cyano-4-methylphenylamino)-4-(3-(dimethylamino)propylamino)pyrimidin-5-yl) thiophene-2-carboxylic acid] | 64.4 |
| CCOC(=O)c1cncc(-c2cnc(Nc3ccc(F)c(Cl)c3)nc2NCCNC(=O)OC(C)(C)C)c1 [Example 98, 5-[4-(2-tert-Butoxycarbonylamino-ethylamino)-2-(3-chloro-4-fluoro-phenylamino)-pyrimidin-5-yl]-nicotinic acid ethyl ester] | 59.4 |
| COc1ncc(-c2cnc(Nc3ccc(F)c(Cl)c3)nc2-n2ccc(C(F)(F)F)n2)cc1/C=C/C(=O)O [Example 1030, (E)-3-(5-(2-(3-chloro-4-fluorophenylamino)-4-(3-(trifluoromethyl)-1H-pyrazol-1-yl)pyrimidin-5-yl)-2-methoxypyridin-3-yl)acrylic acid] | 100 |
| COc1cc(Nc2ncc(-c3cccc(/C=C/C(N)=O)c3)c(NCCc3ccncc3)n2)cc(C(F)(F)F)c1 [Example 373, (E)-3-(3-(2-(3-methoxy-5-(trifluoromethyl)phenylamino)-4-(2-(pyridin-4-yl)ethylamino)pyrimidin-5-yl)phenyl)acrylamide] | 82.8 |
| O=C(O)/C=C/c1cccc(-c2cnc(Nc3ccc(F)c(Cl)c3)nc2N2CCOC(CO)C2)c1 (stereo not shown) [Example 1059] | 85 |

| Structure (SMILES) | inhibition at 13 µM [%] |
| --- | --- |
| COc1cc(Nc2ncc(-c3cnc(OC)c(C(=O)NS(=O)(=O)c4c(C)nn(C)c4C)c3)c(-n3nc(C(F)(F)F)cc3C)n2)cc(OC)c1 [Example 842, 5-{2-[(3,5-dimethoxyphenyl)amino]-4-[5-methyl-3-(trifluoromethyl)-1H-pyrazol-1-yl]pyrimidin-5-yl}-2-methoxy-N-[(1,3,5-trimethyl-1H-pyrazol-4-yl)sulfonyl]pyridine-3-carboxamide] | 97 |
| Cc1cc(C(F)(F)F)nn1-c1nc(Nc2ccc(F)c(Cl)c2)ncc1-c1cccc(/C=C/C(=O)O)c1 [Example 322, (2E)-3-(3-{2-[(3-chloro-4-fluorophenyl)amino]-4-[5-methyl-3-(trifluoromethyl)-1H-pyrazol-1-yl]pyrimidin-5-yl}phenyl)prop-2-enoic acid] | 75 |
| COc1ncc(-c2cnc(Nc3ccc(F)c(Cl)c3)nc2NCCc2c[nH]cn2)cn1 [Example 462, N^2-(3-chloro-4-fluorophenyl)-N^4-[2-(1H-imidazol-4-yl)ethyl]-2′-methoxy-5,5′-bipyrimidine-2,4-diamine] | 85 |
| CN(C)CCCNc1nc(Nc2ccc(F)c(Cl)c2)ncc1-c1ccc(F)c(C#N)c1 [Example 13, 5-{2-(3-chloro-4-fluorophenylamino)-4-[3-(dimethylamino)propylamino]pyrimidin-5-yl}-2-fluorobenzonitrile] | 102 |
| COc1cc(Nc2ncc(-c3ccc4c(c3)C(=O)NS4(=O)=O)c(-n3nc(C(F)(F)F)cc3C)n2)cc(OC)c1 [Example 830, 5-{2-[(3,5-dimethoxyphenyl)amino]-4-[5-methyl-3-(trifluoromethyl)-1H-pyrazol-1-yl]pyrimidin-5-yl}-1,2-benzothiazol-3(2H)-one 1,1-dioxide] | 100 |
| Cc1cc(C(F)(F)F)nn1-c1nc(Nc2ccc(F)c(Cl)c2)ncc1-c1cnc(OCCn2ccnc2)c(C(=O)O)c1 [Example 795, 5-{2-[(3-chloro-4-fluorophenyl)amino]-4-[5-methyl-3-(trifluoromethyl)-1H-pyrazol-1-yl]pyrimidin-5-yl}-2-[2-(1H-imidazol-1-yl)ethoxy]pyridine-3-carboxylic acid] | 100 |
| COc1cc(Nc2ncc(-c3cccc(/C=C/C(=O)O)c3)c(N3CC(C)OC(C)C3)n2)cc(C(F)(F)F)c1 (stereo not shown) [Example 348, (E)-3-(3-(4-(2,6-dimethylmorpholino)-2-(3-methoxy-5-(trifluoromethyl)phenylamino)pyrimidin-5-yl)phenyl) acrylic acid] | 85.7 |
| COc1cc(Nc2ncc(-c3cncc(C(=O)NCCS(C)(=O)=O)c3)c(-n3ccc(C(F)(F)F)n3)n2)cc(OC)c1 [Example 684, 5-{2-[(3,5-dimethoxyphenyl)amino]-4-[3-(trifluoromethyl)-1H-pyrazol-1-yl]pyrimidin-5-yl}-N-[2-(methylsulfonyl)ethyl]pyridine-3-carboxamide] | 100 |
| COCCCNc1nc(Nc2ccc(F)c(Cl)c2)ncc1-c1ccc2cc(C(=O)O)[nH]c2c1 [Example 1061, 6-(2-(3-chloro-4-fluorophenylamino)-4-(3-methoxypropylamino)pyrimidin-5-yl)-1H-indole-2-carboxylic acid] | 92 |
| CCCS(=O)(=O)NC(=O)c1cc(-c2cnc(Nc3cc(OC)cc(OC)c3)nc2-n2ccc(C(F)(F)F)n2)cnc1OC [Example 816, 5-{2-[(3,5-dimethoxyphenyl)amino]-4-[3-(trifluoromethyl)-1H-pyrazol-1-yl]pyrimidin-5-yl}-2-methoxy-N-(propylsulfonyl)pyridine-3-carboxamide] | 100 |
| COc1ncc(-c2cnc(Nc3cccc(C(C)=O)c3)nc2-n2ccc(C(F)(F)F)n2)cc1C(=O)O [Example 720, 5-{2-[(3-acetylphenyl)amino]-4-[3-(trifluoromethyl)-1H-pyrazol-1-yl]pyrimidin-5-yl}-2-methoxypyridine-3-carboxylic acid] | 100 |
| CCOC(=O)c1cncc(-c2cnc(Nc3ccc(F)c(Cl)c3)nc2NC2CCN(C(C)=O)CC2)c1 [Example 92, 5-[4-(1-Acetyl-piperidin-4-ylamino)-2-(3-chloro-4-fluoro-phenylamino)-pyrimidin-5-yl]-nicotinic acid ethyl ester] | 3.56 |
| COCCn1cc(-c2cnc(Nc3cc(OC)cc(OC)c3)nc2-n2ccc(C(F)(F)F)n2)cc(C(=O)NS(C)(=O)=O)c1=O [Example 1163, 5-(2-(3,5-dimethoxyphenylamino)-4-(3-(trifluoromethyl)-1H-pyrazol-1-yl)pyrimidin-5-yl)-1-(2-methoxyethyl)-N-(methylsulfonyl)-2-oxo-1,2-dihydropyridine-3-carboxamide] | 100 |
| Cc1cc(C(F)(F)F)nn1-c1nc(Nc2cccc(F)c2)ncc1-c1cncc(C(=O)O)c1 [Example 642, 5-{2-[(3-fluorophenyl)amino]-4-[5-methyl-3-(trifluoromethyl)-1H-pyrazol-1-yl]pyrimidin-5-yl}pyridine-3-carboxylic acid] | 100 |
| COc1ncc(-c2cnc(Nc3cc(C)cc(F)c3)nc2-n2nc(C(F)(F)F)cc2C)cc1C(=O)O [Example 755, 5-{2-[(3-fluoro-5-methylphenyl)amino]-4-[5-methyl-3-(trifluoromethyl)-1H-pyrazol-1-yl]pyrimidin-5-yl}-2-methoxypyridine-3-carboxylic acid] | 100 |
